The text below walks through data of patent publication US20230174556A1, “COMPOUNDS AS PROTEIN KINASE INHIBITORS” (Fochon Biosciences, Ltd., priority 2020, published 2023).

The subject of the first assay is OCI-LY10 (PI3Kδ dependent) cells. Kind of assay: OCI-LY10 cell proliferation assay (MTS). The format is cell-based. Particulars: Homo sapiens, OCI-Ly10, 72 h, inhibition of OCI-LY10 cells proliferation, 72 h incubation, MTS readout at 490 nm. On the procedure:
MTS testing kit was purchased from Promega (Madison, WI, USA). The RPMI-1640, Fetal bovine serum and Penicillin-Streptomycin were purchased from BI (Biological Industries, Beit Haemek, Israel). Dimethyl sulfoxide (DMSO) was purchased from Sigma (St. Louis., MO, USA). OCI-LY10 cells were cultured in RPMI1640 supplemented with Penicillin-Streptomycin and 10% FBS.
To investigate whether a compound is able to inhibit the activity of PI3Kδ in cells, a mechanism-based assay using OCI-LY10 (PI3Kδ dependent) cells was developed. In this assay, inhibition of PI3Kδ was detected by the inhibition of OCI-LY10 cells proliferation. Cells were plated into 96-well plates at a density of 10000 cells/well. Plates were incubated at 37° C., with 5 % CO2 for 4 h. Compounds were serially diluted and added to the plates with the final compound concentrations as 10000, 3333.3, 1111.1, […], 123.5, 41.2, 13.7, 4.6 and 1.5 nM. Plates were incubated at 37° C., with 5 % CO2 for 72 h. 20 µl MTS was added into each well and the plates were incubated at 37° C., with 5 % CO2 for exactly 2 h. The absorbance was measured by a microplate reader at 490 nm. IC50 was calculated using GraphPad Prism 5.0 software.
With `COc1ncc(-c2nn([C@@H](C)c3cc4scc(Cl)n4c(=O)c3-c3cccc(F)c3)c3ncnc(N)c23)cn1` [Example 104, (S)-7-(1-(4-amino-3-(2-methoxypyrimidin-5-yl)-1H-pyrazolo[3,4-d]pyrimidin-1-yl)ethyl)-3-chloro-6-(3-fluorophenyl)-5H-thiazolo[3,2-a]pyridin-5-one], half-maximal inhibition (IC50) required 64 nM.

In the case of `Cc1csc2nc([C@H](C)n3nc(-c4ccc(OC(C)C)c(F)c4)c4c(N)ncnc43)c(-c3ccccc3)c(=O)n12` [Example 8, (S)-7-(1-(4-amino-3-(3-fluoro-4-isopropoxyphenyl)-1H-pyrazolo[3,4-d]pyrimidin-1-yl)ethyl)-3-methyl-6-phenyl-5H -thiazolo[3,2-a]pyrimidin-5-one], the IC50 (in general, the concentration at which inhibition is half-maximal) was 6 nM.

`CC(C)Oc1ccc(-c2nn([C@@H](C)c3cc4scc(Cl)n4c(=O)c3-c3cccc(F)c3)c3ncnc(N)c23)cc1F` [Example 3, (S)-7-(1-(4-amino-3-(3-fluoro-4-isopropoxyphenyl)-1H-pyrazolo[3,4-d]pyrimidin-1-yl)ethyl)-3-chloro-6-(3-fluorophenyl)-5H-thiazolo[3,2-a]pyridin-5-one] displayed an IC50 of 1 nM.

`Cc1csc2cc([C@H](C)n3nc(-c4ccc(OC(C)C)nc4)c4c(N)ncnc43)c(-c3cccc(F)c3)c(=O)n12` [Example 19, (S)-7-(1-(4-amino-3-(6-isopropoxypyridin-3-yl)-1H-pyrazolo[3,4-d]pyrimidin-1-yl)ethyl)-6-(3-fluorophenyl)-3-methyl-5H-thiazolo[3,2-a]pyridin-5-one]: the IC50 amounted to 1 nM.

Turning to `Cc1csc2cc([C@H](C)n3nc(-c4ccc(OC(F)F)c(F)c4)c4c(N)ncnc43)c(-c3cccc(F)c3)c(=O)n12` [Example 14, (S)-7-(1-(4-amino-3-(4-(difluoromethoxy)-3-fluorophenyl)-1H-pyrazolo[3,4-d]pyrimidin-1-yl)ethyl)-6-(3-fluorophenyl)-3-methyl-5H-thiazolo[3,2-a]pyrid in-5-one], the IC50 stood at 1 nM.

Compound `CC(C)Oc1ccc(-c2nn([C@@H](C)c3cc4scc(Cl)n4c(=O)c3-c3ccccc3)c3ncnc(N)c23)cc1F` [Example 4, (S)-7-(1-(4-amino-3-(3-fluoro-4-isopropoxyphenyl)-1H-pyrazolo[3,4-d]pyrimidin-1-yl)ethyl)-3-chloro-6-phenyl-5H-thiazolo[3,2-a]pyridin-5-one] registered an IC50 of 1 nM.

For the compound `Cc1csc2nc([C@H](C)n3nc(-c4cnc(OC(C)C)c(C#N)c4)c4c(N)ncnc43)c(-c3cccc(F)c3)c(=O)n12` [Example 100], half-maximal inhibition (IC50) was put at 1 nM.

`C[C@@H](c1cc2scc(Cl)n2c(=O)c1-c1cccc(F)c1)n1nc(-c2ccc(OC3CC3)c(F)c2)c2c(N)ncnc21` [Example 12, (S)-7-(1-(4-amino-3-(4-cyclopropoxy-3-fluorophenyl)-1H-pyrazolo[3,4-d]pyrimidin-1-yl)ethyl)-3-chloro-6-(3-fluor ophenyl)-5H-thiazolo[3,2-a]pyridin-5-one] gave an IC50 of 18 nM.

Take `Cc1csc2cc([C@H](C)n3nc(-c4ccc(OC5CC5)c(F)c4)c4c(N)ncnc43)c(-c3cccc(F)c3)c(=O)n12` [Example 16, (S)-7-(1-(4-amino-3-(4-cyclopropoxy-3-fluorophenyl)-1H-pyrazolo[3,4-d]pyrimidin-1-yl)ethyl)-6-(3-fluorophenyl) -3-methyl-5H-thiazolo[3,2-a]pyridin-5-one]: the IC50 was determined as 26 nM.

Regarding `Cc1csc2cc([C@H](C)n3nc(-c4ccc(OC(C)C)c(F)c4)c4c(N)ncnc43)c(-c3ccccc3)c(=O)n12` [Example 2-S, (S)-7-(1-(4-amino-3-(3-fluoro-4-isopropoxyphenyl)-1H-pyrazolo[3,4-d]pyrimidin-1-yl)ethyl)-3-methyl-6-phenyl-5H-thiazolo[3,2-a]pyridin-5-one], the IC50 was determined as 1 nM.

Still in this assay, the particulars now being: inhibition of OCI-LY10 cells proliferation, 72 h incubation, MTS readout at 490 nm.
Take “(S)-N-(5-(4-amino-1-(1-(3-methyl-5-o xo-6-phenyl-5H-thiazolo[3,2-α]pyridin -7-yl)ethyl)-1H-pyrazolo[3,4-d]pyrimi din-3-yl)-2-methoxypyridin-3-yl)meth anesulfonamide [Example 76]”: the IC50 worked out at 1 nM.

Take `CC(C)Oc1ccc(-c2nn([C@@H](C)c3cc4scc(Cl)n4c(=O)c3-c3ccccc3)c3ncnc(N)c23)cn1` [Example 86, (S)-7-(1-(4-amino-3-(6-isopropoxypyridin-3-yl)-1H-pyrazolo[3,4-d]pyrimidin-1-yl)ethyl)-3-chloro-6-phenyl-5H-thia zolo [3,2-α] pyridin-5-one]: inhibition was half-maximal at 2 nM (IC50).

For `C[C@@H](c1cc2scc(Cl)n2c(=O)c1-c1cccc(F)c1)n1nc(-c2ccc(OC(F)F)c(F)c2)c2c(N)ncnc21` [Example 66, (S)-7-(1-(4-amino-3-(4-(difluoromethoxy)-3-fluorophenyl)-1H-pyrazolo[3,4-d]pyrimidin-1-yl)ethyl)-3-chloro-6-(3-fluorophenyl)-5H-thiazolo[3,2-α]pyrid in-5-one], the IC50 was determined as 5 nM.

For `COc1ncc(-c2nn([C@@H](C)c3cc4scc(Cl)n4c(=O)c3-c3ccccc3)c3ncnc(N)c23)cc1NS(C)(=O)=O` [Example 78, (S)-N-(5-(4-amino-1-(1-(3-chloro-5-oxo-6-phenyl-5H-thiazolo[3,2-α]pyridin-7-yl)ethyl)-1H-pyrazolo[3,4-d]pyrimidin-3-yl)-2-methoxypyridin-3-yl)metha nesulfonamide], the IC50 stood at 3 nM.

As to `CC(C)Oc1ncc(-c2nn([C@@H](C)c3cc4scc(Cl)n4c(=O)c3-c3ccccc3)c3ncnc(N)c23)cc1C#N` [Example 98, (S)-5-(4-amino-1-(1-(3-chloro-5-oxo-6-phenyl-5H-thiazolo[3,2-α]pyridin-7-y 1)ethyl)-1H-pyrazolo[3,4-d]pyrimidin-3-yl)-2-isopropoxynicotinonitrile], the IC50 turned out to be 8 nM.

As to `Cc1csc2cc(C(C)n3nc(-c4ccc(OC(C)C)c(F)c4)c4c(N)ncnc43)c(-c3ccccc3)c(=O)n12` (stereo not shown) [Example 2, 7-(1-(4-amino-3-(3-fluoro-4-isopropoxyphenyl)-1H-pyrazolo[3,4-d]pyrimidin-1-yl)ethyl)-3-methyl-6-phenyl-5H-thiazolo[3,2-a]pyridin-5-one], the IC50 was 2 nM.

On to `COc1ncc(-c2nn([C@@H](C)c3cc4scc(C)n4c(=O)c3-c3cccc(F)c3)c3ncnc(N)c23)cn1` [Example 103, (S)-7-(1-(4-amino-3-(2-methoxypyrimidin-5-yl)-1H-pyrazolo[3,4-d]pyrimidin-1-yl)ethyl)-6-(3-fluorophenyl)-3-met hyl-5H-thiazolo[3,2-α]pyridin-5-one], for which the IC50 was 22 nM.

With `Cc1csc2nc([C@H](C)n3nc(-c4ccc(OC(C)C)nc4)c4c(N)ncnc43)c(-c3cccc(F)c3)c(=O)n12` [Example 102, (S)-7-(1-(4-amino-3-(6-isopropoxypyridin-3-yl)-1H-pyrazolo[3,4-d]pyrimidin-1-yl)ethyl)-6-(3-fluorophenyl)-3-methyl-5H-thiazolo[3,2-α]pyrimidin-5-one], 70 nM corresponded to half-maximal inhibition (IC50).

In turn, `Cc1csc2cc([C@H](C)n3nc(-c4cnc(OC(C)C)c(C#N)c4)c4c(N)ncnc43)c(-c3cccc(F)c3)c(=O)n12` [Example 97, (S)-5-(4-amino-1-(1-(6-(3-fluoropheny 1)-3-methyl-5-oxo-5H-thiazolo[3,2-α]pyridin-7-yl)ethyl)-1H-pyrazolo[3,4-d]pyrimidin-3-yl)-2-isopropoxynicotinoni trile] yielded a 50% inhibitory concentration (IC50) of 44 nM.
